How the values were obtained:
foxtail, giant = assay: Test C preemergence; format: in vivo, Setaria faberii; details: for Plant response rating (scale of 0 to 100), Foxtail, Giant: Preemergence, 250 g ai/ha; for Foxtail, Giant plant response rating / Plant response rating, Foxtail, Giant: preemergence; for Plant response rating, Foxtail, Giant: scale 0 to 100, 0 = no effect, 100 = complete control
Outline: (§1)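 Seeds sown in loam–sand blend and treated preemergence with test chemicals in non-phytotoxic solvent with surfactant; postemergence plants in peat-based medium, treated at 2–18 cm (1- to 4-leaf stage). Greenhouse 13 to 15 days, then visual rating versus controls, 0 (no effect) to 100 (complete control).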

velvetleaf [1] = assay: Test A postemergence; format: in vivo, Abutilon theophrasti
Outline: (§2)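 Ratings express plant response from 0 (no effect) to 100 (complete control), judged visually against untreated controls after approximately 10 days in the greenhouse. Preemergence applications were made as directed soil sprays onto seeded loam–sand mix, and postemergence applications onto 2–10 cm plants at one- to two-leaf stage.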

wheat [2] = assay: Test A preemergence; format: in vivo, Triticum aestivum; details: preemergence
Outline: as §2

corn [3] = assay: Test A postemergence; format: in vivo, Zea mays
Outline: as §2

corn [4] = assay: Test C preemergence; format: in vivo, Zea mays; details: for Plant response rating (scale of 0 to 100), Corn: Preemergence, 250 g ai/ha; for Corn plant response rating / Plant response rating, Corn: preemergence; for Plant response rating, Corn: scale 0 to 100, 0 = no effect, 100 = complete control
Excerpt: (§3) Seeds of plant species selected from blackgrass (Alopecurus myosuroides), ryegrass, Italian (Italian ryegrass, Lolium multiflorum), wheat (winter wheat, Triticum aestivum), galium (catchweed bedstraw, Galium aparine), corn (Zea mays), crabgrass, large (large crabgrass, Digitaria sanguinalis), foxtail, giant (giant foxtail, Setaria faberii), johnsongrass (Sorghum halepense), lambsquarters (Chenopodium album), morningglory (Ipomoea coccinea), nutsedge, yellow (yellow nutsedge, Cyperus esculentus), pigweed (redroot pigweed, Amaranthus retroflexus), ragweed (common ragweed, Ambrosia elation), soybean (Glycine max), barnyardgrass (Echinochloa crus-galli), oilseed rape (Brassica napus), waterhemp (common waterhemp, Amaranthus rudis), oat, wild (wild oat, Avena fatua), kochia (Kochia scoparia), Surinam grass (Brachiaria decumbens), foxtail, green (green foxtail, Setaria viridis), goosegrass (Eleusine indica), bromegrass, downy (downy bromegrass, Bromus tectorum), nightshade (eastern black nightshade, Solanum ptycanthum), cocklebur (common cocklebur, Xanthium strumarium), cupgrass, woolly (woolly cupgrass, Eriochloa villosa), bermudagrass (Cynodon dactylon), sunflower, (common oilseed sunflower, Helianthus annuus), Russian thistle (Salsola kali), and velvetleaf (Abutilon theophrasti) were planted into a blend of loam soil and sand and treated preemergence with test chemicals formulated in a non-phytotoxic solvent mixture which included a surfactant.
(§4) At the same time, plants selected from these crop and weed species and also chickweed (common chickweed, Stellaria media), canarygrass (littleseed canarygrass, Phalaris minor), and deadnettle (henbit deadnettle, Lamium amplexicaule), were planted in pots containing Redi-Earth® planting medium (Scotts Company, 14111 Scottslawn Road, Marysville, Ohio 43041) comprising spaghnum peat moss, vermiculite, wetting agent and starter nutrients and treated with postemergence applications of test chemicals formulated in the same manner. Plants ranged in height from 2 to 18 cm (1- to 4-leaf stage) for postemergence treatments. Treated plants and controls were maintained in a greenhouse for 13 to 15 days, after which time all species were compared to controls and visually evaluated. Plant response ratings, summarized in Table C, are based on a scale of 0 to 100 where 0 is no effect and 100 is complete control. A dash (-) response means no test result.

wheat [5] = assay: Test A postemergence; format: in vivo, Triticum aestivum
Outline: as §2

pigweed = assay: Test C preemergence; format: in vivo, Amaranthus retroflexus; details: for Plant response rating (scale of 0 to 100), Pigweed: Preemergence, 250 g ai/ha; for Pigweed plant response rating / Plant response rating, Pigweed: preemergence; for Plant response rating, Pigweed: scale 0 to 100, 0 = no effect, 100 = complete control
Excerpt: as §3, §4

barnyardgrass [6] = assay: Test A preemergence; format: in vivo, Echinochloa crus-galli
Outline: as §2

sedge, umbrella = assay: Test B flood; format: in vivo, Cyperus difformis; details: 250 g ai/ha, visual rating on 0 to 100 scale (0 no effect, 100 complete control), 13 to 15 days
Outline: (§5)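 Plants were grown to the 2-leaf stage, then pots were flooded to 3 cm above the soil and compounds were applied directly into the paddy water. Water depth was held for the whole test; after 13 to 15 days in a greenhouse, injury was visually rated against untreated controls (0 = no effect, 100 = complete control).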

velvetleaf [7] = assay: Test C preemergence; format: in vivo, Abutilon theophrasti; details: for Plant response rating (scale of 0 to 100), Velvetleaf: Preemergence, 250 g ai/ha; for Velvetleaf plant response rating / Plant response rating, Velvetleaf: preemergence; for Plant response rating, Velvetleaf: scale 0 to 100, 0 = no effect, 100 = complete control
Outline: as §1

barnyardgrass [8] = assay: Test B flood; format: in vivo, Echinochloa crus-galli; details: 250 g ai/ha, visual rating on 0 to 100 scale (0 no effect, 100 complete control), 13 to 15 days
Outline: as §5

ragweed = assay: Test C preemergence; format: in vivo, Ambrosia elation; details: for Plant response rating (scale of 0 to 100), Ragweed: Preemergence, 250 g ai/ha; for Ragweed plant response rating / Plant response rating, Ragweed: preemergence; for Plant response rating, Ragweed: scale 0 to 100, 0 = no effect, 100 = complete control
Excerpt: as §3, §4

ryegrass, Italian = assay: Test C preemergence; format: in vivo, Lolium multiflorum; details: for Plant response rating (scale of 0 to 100), Ryegrass, Italian: Preemergence, 250 g ai/ha
Excerpt: as §3, §4

morningglory = assay: Test C preemergence; format: in vivo, Ipomoea coccinea; details: for Plant response rating (scale of 0 to 100), Morningglory: Preemergence, 250 g ai/ha
Outline: as §1

[9] = 31 g ai/ha, visual rating, scale 0 to 100 (0 no effect, 100 complete control), 13 to 15 days
[10] = 125 g ai/ha, scale 0 to 100, 0 is no effect, 100 is complete control
[11] = Postemergence, 500 g ai/ha, visual rating after approx. 10 days, 0 to 100 scale (0 no effect, 100 complete control)
[12] = postemergence, 125 g ai/ha, about 10 days, visual rating on 0 to 100 scale (0 no effect, 100 complete control)
[13] = preemergence, 125 g ai/ha, visual injury, 0 to 100 scale, approx. 10 days
[14] = 62 g ai/ha, scale 0 to 100 (0 no effect, 100 complete control), 13 to 15 days
[15] = Postemergence, 500 g ai/ha, 0 to 100 scale (0 no effect, 100 complete control)
[16] = preemergence, 31 g ai/ha, visual rating, scale 0 to 100 (0 no effect, 100 complete control), 13 to 15 days
[17] = preemergence, 62 g ai/ha, scale 0 to 100 (0 no effect, 100 complete control), 13 to 15 days
[18] = preemergence, 125 g ai/ha, scale 0 to 100, 0 is no effect, 100 is complete control
[19] = preemergence, 500 g ai/ha, visual injury after approx. 10 days, 0 to 100 scale (0 no effect, 100 complete control)
[20] = preemergence, 125 g ai/ha, 13 to 15 days, scale 0 to 100, 0 = no effect, 100 = complete control

CCc1cc(C(=O)NCC(F)(F)F)nn1Cc1ccnc(C(F)(F)F)c1 [Compound 78, 5-ethyl-N-(2,2,2-trifluoroethyl)-1-[[(2-trifluoromethyl)-4-pyridinyl]methyl]-1H-pyrazole-3-carboxamide]
Plant response rating (scale of 0 to 100), Foxtail, Giant (foxtail, giant): 100
Foxtail, Giant plant response rating (foxtail, giant; [9]): 90
Plant response rating, Foxtail, Giant (foxtail, giant; 62 g ai/ha, 13 to 15 days): 98
Foxtail, Giant plant response rating (foxtail, giant; [10]): 98
Velvetleaf plant response rating (velvetleaf [1]; [11]): 100
Velvetleaf plant response rating (velvetleaf [1]; [12]): 100
Wheat plant response rating (wheat [2]; 125 g ai/ha, visual injury, 0 to 100 scale, approx. 10 days): 50
Wheat plant response rating (wheat [2]; 500 g ai/ha, visual injury after approx. 10 days, 0 to 100 scale (0 no effect, 100 complete control)): 100
Corn plant response rating (corn [3]; [11]): 100
Corn plant response rating (corn [3]; [12]): 100
Plant response rating (scale of 0 to 100), Corn (corn [4]): 98
Corn plant response rating (corn [4]; [9]): 60
Plant response rating, Corn (corn [4]; 62 g ai/ha, 13 to 15 days): 65
Corn plant response rating (corn [4]; [10]): 95
Wheat plant response rating (wheat [5]; [11]): 80
Wheat plant response rating (wheat [5]; [12]): 70
Plant response rating (scale of 0 to 100), Pigweed (pigweed): 100
Pigweed plant response rating (pigweed; [9]): 100
Plant response rating, Pigweed (pigweed; 62 g ai/ha, 13 to 15 days): 100
Pigweed plant response rating (pigweed; [10]): 100
Barnyardgrass plant response rating (barnyardgrass [6]; Preemergence, 500 g ai/ha, 0 to 100 scale, 0 no effect, 100 complete control): 100
Barnyardgrass plant response rating (barnyardgrass [6]; [13]): 100
Plant response rating, Sedge, Umbrella (sedge, umbrella): 80
Plant response rating (scale of 0 to 100), Velvetleaf (velvetleaf [7]): 100
Velvetleaf plant response rating (velvetleaf [7]; [9]): 80
Plant response rating, Velvetleaf (velvetleaf [7]; 62 g ai/ha, 13 to 15 days): 100
Velvetleaf plant response rating (velvetleaf [7]; [10]): 100
Plant response rating, Barnyardgrass (barnyardgrass [8]): 50
Plant response rating (scale of 0 to 100), Ragweed (ragweed): 100
Ragweed plant response rating (ragweed; [9]): 80
Plant response rating, Ragweed (ragweed; 62 g ai/ha, 13 to 15 days): 98
Ragweed plant response rating (ragweed; [10]): 98

CCONC(=O)c1cc(CC)n(Cc2cc(C(F)(F)F)no2)n1 [Compound 125]
Plant response rating (scale of 0 to 100), Foxtail, Giant (foxtail, giant): 90
Foxtail, Giant plant response rating (foxtail, giant; [9]): 20
Foxtail, Giant plant response rating (foxtail, giant; [14]): 35
Foxtail, Giant plant response rating (foxtail, giant; [10]): 90
Corn plant response rating (corn [3]; [15]): 90
Corn plant response rating (corn [3]; [12]): 30
Plant response rating (scale of 0 to 100), Ryegrass, Italian (ryegrass, Italian): 95
Ryegrass, Italian plant response rating (ryegrass, Italian; [16]): 0
Ryegrass, Italian plant response rating (ryegrass, Italian; [17]): 30
Ryegrass, Italian plant response rating (ryegrass, Italian; [18]): 20
Plant response rating (scale of 0 to 100), Corn (corn [4]): 45
Corn plant response rating (corn [4]; [9]): 0
Corn plant response rating (corn [4]; [14]): 5
Corn plant response rating (corn [4]; [10]): 10
Wheat plant response rating (wheat [5]; [15]): 60
Wheat plant response rating (wheat [5]; [12]): 0
Plant response rating (scale of 0 to 100), Pigweed (pigweed): 100
Pigweed plant response rating (pigweed; [9]): 65
Pigweed plant response rating (pigweed; [14]): 75
Pigweed plant response rating (pigweed; [10]): 90
Plant response rating (scale of 0 to 100), Morningglory (morningglory): 95
Morningglory plant response rating (morningglory; [16]): 45
Morningglory plant response rating (morningglory; [17]): 50
Morningglory plant response rating (morningglory; [18]): 75
Barnyardgrass plant response rating (barnyardgrass [6]; [13]): 80
Barnyardgrass plant response rating (barnyardgrass [6]; [19]): 100
Plant response rating, Sedge, Umbrella (sedge, umbrella): 50
Plant response rating (scale of 0 to 100), Velvetleaf (velvetleaf [7]): 40
Velvetleaf plant response rating (velvetleaf [7]; [9]): 20
Velvetleaf plant response rating (velvetleaf [7]; [14]): 20
Velvetleaf plant response rating (velvetleaf [7]; [10]): 30
Plant response rating, Barnyardgrass (barnyardgrass [8]): 20
Plant response rating (scale of 0 to 100), Ragweed (ragweed): 75
Ragweed plant response rating (ragweed; [9]): 5
Ragweed plant response rating (ragweed; [14]): 10
Ragweed plant response rating (ragweed; [10]): 55

CCOc1cc(C(=O)NC2CC2)nn1Cc1ccnc(OC(F)F)c1 [Compound 133]
Plant response rating (scale of 0 to 100), Foxtail, Giant (foxtail, giant): 100
Foxtail, Giant plant response rating (foxtail, giant; [9]): 85
Foxtail, Giant plant response rating (foxtail, giant; [14]): 100
Plant response rating, Foxtail, Giant (foxtail, giant; 125 g ai/ha, 13 to 15 days): 100
Corn plant response rating (corn [3]; [15]): 80
Corn plant response rating (corn [3]; [12]): 60
Plant response rating (scale of 0 to 100), Ryegrass, Italian (ryegrass, Italian): 95
Ryegrass, Italian plant response rating (ryegrass, Italian; [16]): 35
Ryegrass, Italian plant response rating (ryegrass, Italian; [17]): 85
Plant response rating, Ryegrass, Italian (ryegrass, Italian; [20]): 90
Plant response rating (scale of 0 to 100), Corn (corn [4]): 95
Corn plant response rating (corn [4]; [9]): 5
Corn plant response rating (corn [4]; [14]): 25
Plant response rating, Corn (corn [4]; 125 g ai/ha, 13 to 15 days): 45
Wheat plant response rating (wheat [5]; [15]): 90
Wheat plant response rating (wheat [5]; [12]): 40
Plant response rating (scale of 0 to 100), Pigweed (pigweed): 100
Pigweed plant response rating (pigweed; [9]): 100
Pigweed plant response rating (pigweed; [14]): 75
Plant response rating, Pigweed (pigweed; 125 g ai/ha, 13 to 15 days): 100
Plant response rating (scale of 0 to 100), Morningglory (morningglory): 100
Morningglory plant response rating (morningglory; [16]): 75
Morningglory plant response rating (morningglory; [17]): 100
Plant response rating, Morningglory (morningglory; [20]): 100
Barnyardgrass plant response rating (barnyardgrass [6]; [13]): 90
Barnyardgrass plant response rating (barnyardgrass [6]; [19]): 100
Plant response rating, Sedge, Umbrella (sedge, umbrella): 90
Plant response rating (scale of 0 to 100), Velvetleaf (velvetleaf [7]): 100
Velvetleaf plant response rating (velvetleaf [7]; [9]): 35
Velvetleaf plant response rating (velvetleaf [7]; [14]): 55
Plant response rating, Velvetleaf (velvetleaf [7]; 125 g ai/ha, 13 to 15 days): 100
Plant response rating, Barnyardgrass (barnyardgrass [8]): 40
Plant response rating (scale of 0 to 100), Ragweed (ragweed): 100
Ragweed plant response rating (ragweed; [9]): 10
Ragweed plant response rating (ragweed; [14]): 60
Plant response rating, Ragweed (ragweed; 125 g ai/ha, 13 to 15 days): 100
